Tested on: not given
Assay: not given
Conditions: not given

First: C[C@@H]1CN(c2ccc(C(=O)O)cn2)C[C@H](C)N1CC(=O)N1CC=C(c2cccc3ccoc23)CC1 [Compound 57, 6-{(3S,5R)-4-[2-(4-benzofuran-7-yl-3,6-dihydro-2H-pyridin-1-yl)-2-oxoethyl]-3,5-dimethylpiperazin-1-yl}nicotinic acid]
Second: C[C@@H]1CN(c2ccc(C(F)(F)F)cn2)C[C@H](C)N1CC(=O)N1CCC=C(c2cccc3ccoc23)C1 [Compound 63, 1-(5-benzofuran-7-yl-3,6-dihydro-2H-pyridin-1-yl)-2-[(2S,6R)-2,6-dimethyl-4-(5-trifluoromethylpyridin-2-yl)piperazin-1-yl]ethanone]
The melting point of the first is higher: 272 to 274 °C for the first, 129 to 130 °C for the second.

Compared with `O=C(CN1CCN(c2ccc(C(F)(F)F)cn2)C(=O)C1)N1CC=C(c2ccc3occc3c2)CC1` [Compound 60, 4-[2-(4-benzofuran-5-yl-3,6-dihydro-2H-pyridin-1-yl)-2-oxoethyl]-1-(5-trifluoromethylpyridin-2-yl)piperazin-2-one], `O=C(CN1CCN(c2ccc(C(F)(F)F)cn2)C(=O)C1)N1CC=C(c2cccc3ccoc23)C1` [Compound 83, 4-[2-(3-benzofuran-7-yl-2,5-dihydropyrrol-1-yl)-2-oxoethyl]-1-(5-trifluoromethylpyridin-2-yl)piperazin-2-one] is higher in melting point: 154 to 155 °C for the first, 184 to 186 °C for the second.

First: COC(=O)c1ccc(N2C[C@@H](C)N(CC(=O)N3CC=C(c4ccc5sc(C)cc5c4)CC3)[C@@H](C)C2)nc1 [Compound 61, Methyl 6-((3S,5R)-3,5-dimethyl-4-{2-[4-(2-methylbenzo[b]thiophen-5-yl)-3,6-dihydro-2H-pyridin-1-yl]-2-oxoethyl}piperazin-1-yl)nicotinate]
Second: CCCc1cc2cc(C3=CCN(C(=O)CN4[C@H](C)CN(c5ccc(C(F)(F)F)cn5)C[C@@H]4C)CC3)ccc2s1 [Compound 68, 2-[(2S,6R)-2,6-dimethyl-4-(5-trifluoromethylpyridin-2-yl)piperazin-1-yl]-1-[4-(2-propylbenzo[b]thiophen-5-yl)-3,6-dihydro-2H-pyridin-1-yl]ethanone]
The melting point of the first is lower: 148 to 150 °C for the first, 157 to 159 °C for the second.

First: C[C@@H]1CN(c2ncc(C(F)(F)F)cc2Cl)C[C@H](C)N1CC(=O)N1CC=C(c2cccc3ccoc23)CC1 [Compound 92, 1-(4-benzofuran-7-yl-3,6-dihydro-2H-pyridin-1-yl)-2-[(2S,6R)-4-(3-chloro-5-trifluoromethylpyridin-2-yl)-2,6-dimethylpiperazin-1-yl]ethanone]
Second: C[C@@H]1CN(c2ccc(C(F)(F)F)cn2)C[C@H](C)N1CC(=O)N1CC=C(c2c[nH]c3ccccc23)CC1 [Compound 97, 2-[(2S,6R)-2,6-dimethyl-4-(5-trifluoromethylpyridin-2-yl)piperazin-1-yl]-1-[4-(1H-indol-3-yl)-3,6-dihydro-2H-pyridin-1-yl]ethanone]
The melting point of the first is lower: 130 to 131 °C for the first, 198 to 200 °C for the second.

First: O=C(CN1CCN(c2ccc3ccccc3n2)CC1)N1CC=C(c2c[nH]c3ccccc23)CC1 [Compound 98, 1-[4-(1H-indol-3-yl)-3,6-dihydro-2H-pyridin-1-yl]-2-(4-quinolin-2-ylpiperazin-1-yl)ethanone]
Second: O=C(CN1CCN(c2cccc(Cl)n2)CC1)N1CC=C(c2c[nH]c3ccccc23)CC1 [Compound 108, 2-[4-(6-chloropyridin-2-yl)piperazin-1-yl]-1-[4-(1H-indol-3-yl)-3,6-dihydro-2H-pyridin-1-yl]ethanone]
The melting point of the first is higher: 213 to 215 °C for the first, 202 to 204 °C for the second.

Compared with `C[C@@H]1CN(c2ncc(F)cn2)C[C@H](C)N1CC(=O)N1CC=C(c2c[nH]c3ccccc23)CC1` [Compound 100, 2-[(2S,6R)-4-(5-fluoropyrimidin-2-yl)-2,6-dimethylpiperazin-1-yl]-1-[4-(1H-indol-3-yl)-3,6-dihydro-2H-pyridin-1-yl]ethanone], `C[C@@H]1CN(c2ccc3ccccc3n2)C[C@H](C)N1CC(=O)N1CC=C(c2c[nH]c3ccccc23)CC1` [Compound 110, 2-((2S,6R)-2,6-dimethyl-4-quinolin-2-yl-piperazin-1-yl)-1-[4-(1H-indol-3-yl)-3,6-dihydro-2H-pyridin-1-yl]ethanone] is lower in melting point: 235 to 237 °C for the first, 198 to 200 °C for the second.

Compared with `C[C@@H]1CN(c2ccc(Cl)cn2)C[C@H](C)N1CC(=O)N1CC=C(c2cccc3ccsc23)CC1` [Compound 101, 1-(4-benzo[b]thiophen-7-yl-3,6-dihydro-2H-pyridin-1-yl)-2-[(2S,6R)-4-(5-chloropyridin-2-yl)-2,6-dimethylpiperazin-1-yl]ethanone], `O=C(CN1CCN(c2cccc(Cl)n2)CC1)N1CC=C(c2cccc3ccsc23)CC1` [Compound 107, 1-(4-benzo[b]thiophen-7-yl-3,6-dihydro-2H-pyridin-1-yl)-2-[4-(6-chloropyridin-2-yl)piperazin-1-yl]ethanone] is lower in melting point: 157 to 158 °C for the first, 92 to 93 °C for the second.

First: O=C(CN1CCN(c2ccc3ccccc3n2)CC1)N1CC=C(c2cccc3ccsc23)CC1 [Compound 105, 1-(4-benzo[b]thiophen-7-yl-3,6-dihydro-2H-pyridin-1-yl)-2-(4-quinolin-2-ylpiperazin-1-yl)ethanone]
Second: O=C(CN1CCN(c2cccc(Br)n2)CC1)N1CC=C(c2cccc3ccsc23)CC1 [Compound 113, 1-(4-benzo[b]thiophen-7-yl-3,6-dihydro-2H-pyridin-1-yl)-2-[4-(6-bromopyridin-2-yl)piperazin-1-yl]ethanone]
The melting point of the first is higher: 177 to 178 °C for the first, 80 to 81 °C for the second.

`O=C(CN1CCN(c2ccnc3cc(Cl)ccc23)CC1)N1CC=C(c2cccc3ccsc23)CC1` [Compound 106, 1-(4-benzo[b]thiophen-7-yl-3,6-dihydro-2H-pyridin-1-yl)-2-[4-(7-chloroquinolin-4-yl)piperazin-1-yl]ethanone] and `Cc1cc2cc(C3=CCN(C(=O)CN4CCN(c5ccnc6cc(Cl)ccc56)CC4)CC3)ccc2s1` [Compound 117, 2-[4-(7-chloroquinolin-4-yl)piperazin-1-yl]-1-[4-(2-methylbenzo[b]thiophen-5-yl)-3,6-dihydro-2H-pyridin-1-yl]ethanone] cannot be ordered by melting point: 90 to 91 °C for the first, 90 to 93 °C for the second.

First: O=C(CN1CCN(c2ccc(C(F)(F)F)cn2)CC1)N1CC=C(c2c[nH]c3ccccc23)CC1 [Compound 109, 1-[4-(1H-indol-3-yl)-3,6-dihydro-2H-pyridin-1-yl]-2-[4-(5-trifluoromethylpyridin-2-yl)piperazin-1-yl]ethanone]
Second: Cc1cc2cc(C3=CCN(C(=O)CN4CCN(c5cccc(C(F)(F)F)n5)CC4)CC3)ccc2s1 [Compound 116, 1-[4-(2-methylbenzo[b]thiophen-5-yl)-3,6-dihydro-2H-pyridin-1-yl]-2-[4-(6-trifluoromethylpyridin-2-yl)piperazin-1-yl]ethanone]
The melting point of the first is higher: 220 to 222 °C for the first, 121 to 123 °C for the second.

First: O=C(CN1CCN(c2ccc(Cl)c(Cl)n2)CC1)N1CC=C(c2cccc3ccsc23)CC1 [Compound 112, 1-(4-benzo[b]thiophen-7-yl-3,6-dihydro-2H-pyridin-1-yl)-2-[4-(5,6-dichloropyridin-2-yl)piperazin-1-yl]ethanone]
Second: Cc1cc2cc(C3=CCN(C(=O)CN4CCN(c5ccc6ccccc6n5)CC4)CC3)ccc2s1 [Compound 114, 1-[4-(2-methylbenzo[b]thiophen-5-yl)-3,6-dihydro-2H-pyridin-1-yl]-2-(4-quinolin-2-ylpiperazin-1-yl)ethanone]
The melting point of the first is lower: 89 to 90 °C for the first, 189 to 190 °C for the second.

Work on `O=C(CN1CCN(c2ccc(C(F)(F)F)cn2)C(=O)C1)N1CC=C(c2nccc3sccc23)CC1` [Compound 118, 4-[2-oxo-2-(4-thieno[3,2-c]pyridin-4-yl-3,6-dihydro-2H-pyridin-1-yl)ethyl]-1-(5-trifluoromethylpyridin-2-yl)piperazin-2-one] yielded a melting point of 145 to 148 °C.

Target: T1, p75^NTR receptor (Homo sapiens, UniProt P08138)
T1 construct: the clone Bep 75, stably expressing the complete form of the human p75^NTR receptor; expressed in transfected cells; host or cells: SK-N-BE Bep 75 (human neuroblastoma clone stably expressing the receptor); the soluble p75NTR-AP came from the supernatant of transiently transfected HEK293 cells
T1 sequence (P08138 29-427): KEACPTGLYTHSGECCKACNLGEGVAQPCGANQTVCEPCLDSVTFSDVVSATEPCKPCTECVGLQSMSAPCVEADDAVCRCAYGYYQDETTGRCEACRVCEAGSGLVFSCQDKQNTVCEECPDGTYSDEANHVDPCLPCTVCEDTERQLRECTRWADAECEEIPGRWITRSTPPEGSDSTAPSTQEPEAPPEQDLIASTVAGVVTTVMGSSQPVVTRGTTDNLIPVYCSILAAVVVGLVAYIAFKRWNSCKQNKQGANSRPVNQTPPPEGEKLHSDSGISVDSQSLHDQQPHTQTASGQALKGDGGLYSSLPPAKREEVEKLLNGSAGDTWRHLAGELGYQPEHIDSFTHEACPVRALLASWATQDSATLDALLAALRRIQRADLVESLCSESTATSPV
Assay: Study of the dimerization of the p75NTR receptor independently of its ligand (binding of soluble p75NTR-alkaline phosphatase to SK-N-BE Bep 75 cells)
Conditions: 1 hour preincubation at 37° C., soluble p75NTR-alkaline phosphatase 10 nM
Procedure: The SK-N-BE parent strain (human neuroblastoma) and the clone Bep 75, stably expressing the complete form of the human p75^NTR receptor (SK-N-BE Bep 75) are conventionally cultured in an RPMI culture medium containing FCS (5%), sodium pyruvate (1 mM) and glutamine (4 mM). For the SK-N-BE Bep 75 cells, hygromycin (200 μl/20 ml of medium) is added as selection agent.
Study of the Dimerization of the p75^NTR Receptor Independently of its Ligand
The study of the dimerization of the p75^NTR receptor is performed on a cell suspension of the strain SK-N-BE Bep 75. The cells (2.5×10^4 cells/well) are placed in wells (96-well plate) for 24 hours, and then preincubated for 1 hour at 37° C. in the presence or absence of the compounds according to the invention. Supernatent, obtained from a culture of human cells of HEK293 renal origin expressing, after 48 hours of transfection, and secreting a soluble form of the p75^NTR receptor (extracellular part of the receptor) coupled to an alkaline phosphatase, the latter at a final concentration of 10 nM, is then added. The quantification of the specific binding of the soluble receptor to the receptor present on SK-N-BE Bep 75 cells is determined by measuring the enzyme activity of the alkaline phosphatase after incubation of the cells for 1 hour at 37° C. in the presence of the supernatant. After filtering and transferring the filters into 24-well plates, the alkaline phosphatase activity is determined by adding CDP-Star chemoluminescent substrate (ready-to-use, Roche).

Point of comparison: `C[C@@H]1CN(c2ncc(F)cn2)C[C@H](C)N1CC(=O)N1CC=C(c2cccc3ccoc23)CC1` [Compound 36, 1-(4-benzofuran-7-yl-3,6-dihydro-2H-pyridin-1-yl)-2-[(2S,6R)-4-(5-fluoropyrimidin-2-yl)-2,6-dimethylpiperazin-1-yl]ethanone], IC50 20 nM. Against it:
- CC1CN(c2cnccn2)CC(C)N1CC(=O)N1CC=C(c2cccc3ccsc23)CC1 (stereo not shown) [Compound 1, 1-(4-benzo[b]thiophen-7-yl-3,6-dihydro-2H-pyridin-1-yl)-2-(3,5-dimethyl-2,3,5,6-tetrahydro[1,2′]bipyrazinyl-4-yl)ethanone] — 250-fold lower, 0.08 nM

From patent publication US8518947B2, “(Heterocycle/tetrahydropyridine)-(piperazinyl)-1-alcanone and (heterocycle/dihydropyrrolidine)-(piperazinyl)-1-alcanone derivatives, and use thereof as p75 inhibitors” (Sanofi, priority 2009, dated 2013)
